Results taken from publication PMC12615753, “Glutathione as a taste modulator: molecular mechanisms of interaction with umami and sweet taste receptors” (Food Chemistry: Molecular Sciences, 2025).

Target: T1, hTAS1R2/hTAS1R3(r570–858) (Homo sapiens, UniProt Q7RTX0+Q8TE23, A579V/A607F/A718V/A733V/A735I/A808T/C675Y/C757R/D670N/F730L/G674S/G822E/H593Y/H712Q/L571S/L639M/L789Y/L798I/L800F/L816V/M689T/M713V/M818L/P605S/P630S/P826Q/Q627R/Q820L/R594W/R632S/R671W/R752Q/R790Q/R813K/R819W/S577C/S629R/S640A/S673C/T697A/T724M/T739V/T774I/V583T/V612I/V617F/V693A/V701M/V720E/V788A/V802A)
T1 construct: hTAS1R3(r570–858) consists of the N-terminal extracellular domain of hTAS1R3 and the TMD of rTAS1R3; TMD of rTAS1R3 (r570–858); expressed in transfected cells
Experiment: Calcium assay, chimeric TAS1R3 co-expressed with hTAS1R2
Type: cell-based, rat
Source text: Chimeric Gα proteins, such as Gα16Gust44, Gα16Gi3 or Gα15i2, are widely used in the functional expression of TAS1R receptors ([Backes et al., 2015]; [Suess et al., 2015]; [Toda et al., 2021], [Toda et al., 2013], [Toda et al., 2018]; [Zhang et al., 2008]). Chimeric Gα15i2 (([Toda et al., 2013]), Supplementary data) was generated by replacing the last five residues of the C-terminal tail of rat Gα15i2 (EINLL) (UniProt number G3V6N8; https://www.uniprot.org/uniprot/) with the counterpart sequence from human GNAI2 (DCGLF) (UniProt number P04899-1) and cloning into the pcDNA3.1/Hygro vector (Invitrogen, Thermo Fisher Scientific, Illkirch, France) between the HindIII and NotI restriction sites, resulting in the plasmid pcDNA3.1-Gα15i2. Chimeric Gα16Gust44 construct have already been reported ([Raliou et al., 2011]). Briefly, Gα16Gust44 was generated by replacing the C-terminal of Gα16 with the C-terminal 44 residues of gustducin. As previously described, hTAS1R1 was amplified from human fungiform papillae cDNA and cloned and inserted into pcDNA3 (Invitrogen), generating pcDNA3-TAS1R1-WT (wild-type) ([Raliou et al., 2011]). […]

T1 sequence (Q8TE23 20-839, stated change not applied): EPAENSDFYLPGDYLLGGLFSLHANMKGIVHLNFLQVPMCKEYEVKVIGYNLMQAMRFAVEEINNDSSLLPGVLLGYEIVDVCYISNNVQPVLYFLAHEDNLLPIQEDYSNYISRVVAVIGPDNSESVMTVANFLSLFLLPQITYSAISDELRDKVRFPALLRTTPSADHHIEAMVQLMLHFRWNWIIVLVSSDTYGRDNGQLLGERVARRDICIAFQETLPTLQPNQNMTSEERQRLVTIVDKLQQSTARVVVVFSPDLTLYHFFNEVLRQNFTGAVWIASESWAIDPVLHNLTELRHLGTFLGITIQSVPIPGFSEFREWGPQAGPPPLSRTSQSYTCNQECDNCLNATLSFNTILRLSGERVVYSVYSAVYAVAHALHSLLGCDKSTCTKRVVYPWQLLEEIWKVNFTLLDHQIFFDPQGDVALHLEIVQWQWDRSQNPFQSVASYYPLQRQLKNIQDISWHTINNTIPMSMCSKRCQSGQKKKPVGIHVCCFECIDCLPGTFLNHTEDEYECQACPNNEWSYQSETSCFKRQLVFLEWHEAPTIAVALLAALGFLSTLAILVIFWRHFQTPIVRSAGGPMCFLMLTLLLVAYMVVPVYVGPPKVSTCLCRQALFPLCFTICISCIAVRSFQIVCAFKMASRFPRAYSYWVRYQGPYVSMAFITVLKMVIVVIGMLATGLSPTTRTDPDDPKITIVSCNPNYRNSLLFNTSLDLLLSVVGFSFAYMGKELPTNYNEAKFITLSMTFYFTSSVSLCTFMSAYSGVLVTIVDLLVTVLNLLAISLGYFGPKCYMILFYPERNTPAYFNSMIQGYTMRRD
T1 sequence (Q7RTX0 with tags, fused parts or gaps with the stated changes limits assumed): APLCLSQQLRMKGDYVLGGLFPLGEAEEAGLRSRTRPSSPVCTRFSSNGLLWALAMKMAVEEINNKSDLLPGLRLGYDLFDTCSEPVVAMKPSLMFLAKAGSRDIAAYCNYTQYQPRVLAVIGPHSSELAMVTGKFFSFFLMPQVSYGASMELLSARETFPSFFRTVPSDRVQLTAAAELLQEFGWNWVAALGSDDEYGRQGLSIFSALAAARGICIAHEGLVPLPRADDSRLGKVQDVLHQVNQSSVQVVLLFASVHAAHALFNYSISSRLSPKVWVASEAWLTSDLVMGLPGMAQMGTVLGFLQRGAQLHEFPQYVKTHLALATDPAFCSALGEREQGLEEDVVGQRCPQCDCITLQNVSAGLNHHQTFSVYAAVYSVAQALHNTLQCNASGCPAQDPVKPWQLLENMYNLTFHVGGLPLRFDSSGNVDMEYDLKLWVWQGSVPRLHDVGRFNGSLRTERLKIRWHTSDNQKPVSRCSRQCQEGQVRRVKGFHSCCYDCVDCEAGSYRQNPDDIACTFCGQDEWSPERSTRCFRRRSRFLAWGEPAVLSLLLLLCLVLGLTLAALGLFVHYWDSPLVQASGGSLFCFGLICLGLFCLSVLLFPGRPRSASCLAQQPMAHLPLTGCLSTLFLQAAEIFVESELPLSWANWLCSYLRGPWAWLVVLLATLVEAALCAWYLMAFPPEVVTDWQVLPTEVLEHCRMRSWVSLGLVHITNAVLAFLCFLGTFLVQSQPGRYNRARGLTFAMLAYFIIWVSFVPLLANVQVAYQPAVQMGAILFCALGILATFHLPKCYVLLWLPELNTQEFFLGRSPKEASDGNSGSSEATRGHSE

Row | EC50 (sucralose alone, Fig. 3B) [µM] | SMILES | effect of GSH on the response to sucralose
1 | 67 ± 1 | OC[C@H]1O[C@H](O[C@]2(CCl)O[C@H](CCl)[C@@H](O)[C@@H]2O)[C@H](O)[C@@H](O)[C@H]1Cl [sucralose, reference compound] | 
2 |  | N[C@@H](CCC(=O)N[C@@H](CS)C(=O)NCC(=O)O)C(=O)O [GSH, γ-L-glutamyl-L-cysteinyl-glycine] | unaffected
